We go through 5 compounds from patent publication US6608086B2, “Dihydropyridines and new uses thereof” (Synaptic Pharmaceutical Corporation, priority 1993, dated 2003).

The pKi is the negative decadic logarithm of the Ki, by convention in mol/L. Low readings indicate a high Ki, high ones a low Ki. In general, melting point refers to the temperature, or range, at which the solid turns liquid.

Each structure is given as a SMILES string. Where a name gives a salt, the structure may show the parent alone. Read-outs that look alike come from different tables or passages of the source.

One data set concerns the target human prostatic tissue. The data set can be described thus: In vitro human prostate model: block of phenylephrine-induced contraction of human prostatic tissue. It counts as cell-based. The note with it: In Vitro Human Prostate Model; phenylephrine-induced contraction. From the text:
The protocol for these experiments is given below.
Functional Properties of α1 Antagonists in the Human Prostate
The efficacy of α1 adrenergic antagonists for the treatment of benign prostatic hyperplasia (BPH) is related to their ability to elicit relaxation of prostate smooth muscle. An index of this efficacy can be obtained by determining the potency of al antagonists to antagonize the contraction of human prostatic tissue induced by an α1 agonist “in vitro”. Furthermore, by comparing the potency of subtype selective α1 antagonists in binding assays using human α1 receptors with their potency to inhibit agonist-induced smooth muscle contraction, it is possible to determine which of the α1 adrenergic receptor subtypes is involved in the contraction of prostate smooth muscle.
Prostatic adenomas were obtained at the time of surgery from patients with symptomatic BPH. […] The baths were maintained at 37° C. and continuously oxygenated with 5% CO2 and 95% O2. Isometric tension was measured with a Grass Instrument FT03 force transducer interfaced with a computer. Tissue strips were contracted with varying concentrations of phenylephrine after incubating for 20 minutes in the absence and presence of at least three different concentrations of antagonist. Dose-response curves for phenylephrine were constructed, and the antagonist potency (pA2) was estimated by the dose-ratio method. The concentration of some antagonists in the tissue bath was assessed by measuring the displacement of [3H]prazosin by aliquots of the bath medium, using membrane preparations of the cloned human α1C receptor. This control was necessary to account for losses of antagonist due to adsorption to the tissue bath and/or metabolism during the time the antagonists were equilibrated with the prostate tissue.

The test system of a further data set is canine prostate. Briefly: In vivo dog prostate model: inhibition of phenylephrine-induced increase in urethral pressure in anesthetized dogs. The note with it: In Vivo Dog Prostate Model; phenylephrine-induced contraction, urethral pressure.
Another data set deals with T1, α2A receptor (Homo sapiens, UniProt P08913).
T1 construct: host or cells: LM(tk-) cells, line L-α2A
T1 sequence (P08913 1-465): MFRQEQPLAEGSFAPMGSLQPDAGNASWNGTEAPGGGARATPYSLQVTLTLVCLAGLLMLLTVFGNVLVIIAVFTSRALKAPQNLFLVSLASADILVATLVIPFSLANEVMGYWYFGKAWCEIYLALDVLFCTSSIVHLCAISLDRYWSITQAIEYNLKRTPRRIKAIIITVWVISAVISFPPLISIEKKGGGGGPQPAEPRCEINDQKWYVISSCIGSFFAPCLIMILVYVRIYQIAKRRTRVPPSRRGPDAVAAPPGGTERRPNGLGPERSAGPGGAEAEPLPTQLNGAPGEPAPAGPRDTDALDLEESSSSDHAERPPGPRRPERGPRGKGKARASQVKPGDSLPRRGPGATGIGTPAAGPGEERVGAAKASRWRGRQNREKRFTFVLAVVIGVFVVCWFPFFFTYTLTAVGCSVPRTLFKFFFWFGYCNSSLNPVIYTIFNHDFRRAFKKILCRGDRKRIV
Briefly: Competition binding, [3H]rauwolscine, human α2A receptor. The note with it: [3H]rauwolscine. From the text:
(§1) The protocols for these experiments are given below.
(§2) α2 Human Adrenergic Receptors:
(§3) To determine the potency of […], antagonists at the α2 receptors, LM(tk−) cell lines stably transfected with the genes encoding the α2A, α2B, and α2C receptors were used. The cell line expressing the α2A receptor is designated L-α2A, and was deposited on Nov. […] The cell line expressing the α2B receptor is designated L-NGC-α2B, and was deposited on Oct. […] The cell line expressing the α2C receptor is designated L-α2C, and was deposited on Nov. […] Cell lysates were prepared as described above (see Radioligand Binding Assays), and suspended in 25 mM glycylglycine buffer (pH 7.6 at room temperature). Equilibrium competition binding assay were performed using [3H]rauwolscine (0.5 nM), and nonspecific binding was determined by incubation with 10 μM phentolamine. The bound radioligand was separated by filtration through GF/B filters using a cell harvester.

Another data set addresses T2, α2C receptor (Homo sapiens, UniProt P18825).
T2 construct: host or cells: LM(tk-) cells, line L-α2C
T2 sequence (P18825 1-462): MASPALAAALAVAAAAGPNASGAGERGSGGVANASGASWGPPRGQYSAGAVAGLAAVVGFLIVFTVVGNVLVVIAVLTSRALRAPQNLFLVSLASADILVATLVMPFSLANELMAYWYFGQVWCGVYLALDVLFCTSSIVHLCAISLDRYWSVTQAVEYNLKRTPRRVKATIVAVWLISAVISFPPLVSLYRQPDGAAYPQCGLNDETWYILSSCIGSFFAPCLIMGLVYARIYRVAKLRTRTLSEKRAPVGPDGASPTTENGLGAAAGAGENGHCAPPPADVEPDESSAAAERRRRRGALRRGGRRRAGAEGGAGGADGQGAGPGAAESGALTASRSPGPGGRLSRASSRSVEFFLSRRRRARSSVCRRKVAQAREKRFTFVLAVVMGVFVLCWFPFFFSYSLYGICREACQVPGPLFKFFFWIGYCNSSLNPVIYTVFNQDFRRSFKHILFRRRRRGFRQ
Briefly: Competition binding, [3H]rauwolscine, human α2C receptor. As to conditions: [3H]rauwolscine.
Excerpt: as §1, §2, §3

In the next data set the target is T3, L-type calcium channel (Rattus norvegicus, UniProt P22002).
T3 construct: membrane fragments of rat cardiac muscle; from tissue; host or cells: rat cardiac muscle membranes
T3 sequence (P22002 whole entry, other chains not shown, the tested form may be a part): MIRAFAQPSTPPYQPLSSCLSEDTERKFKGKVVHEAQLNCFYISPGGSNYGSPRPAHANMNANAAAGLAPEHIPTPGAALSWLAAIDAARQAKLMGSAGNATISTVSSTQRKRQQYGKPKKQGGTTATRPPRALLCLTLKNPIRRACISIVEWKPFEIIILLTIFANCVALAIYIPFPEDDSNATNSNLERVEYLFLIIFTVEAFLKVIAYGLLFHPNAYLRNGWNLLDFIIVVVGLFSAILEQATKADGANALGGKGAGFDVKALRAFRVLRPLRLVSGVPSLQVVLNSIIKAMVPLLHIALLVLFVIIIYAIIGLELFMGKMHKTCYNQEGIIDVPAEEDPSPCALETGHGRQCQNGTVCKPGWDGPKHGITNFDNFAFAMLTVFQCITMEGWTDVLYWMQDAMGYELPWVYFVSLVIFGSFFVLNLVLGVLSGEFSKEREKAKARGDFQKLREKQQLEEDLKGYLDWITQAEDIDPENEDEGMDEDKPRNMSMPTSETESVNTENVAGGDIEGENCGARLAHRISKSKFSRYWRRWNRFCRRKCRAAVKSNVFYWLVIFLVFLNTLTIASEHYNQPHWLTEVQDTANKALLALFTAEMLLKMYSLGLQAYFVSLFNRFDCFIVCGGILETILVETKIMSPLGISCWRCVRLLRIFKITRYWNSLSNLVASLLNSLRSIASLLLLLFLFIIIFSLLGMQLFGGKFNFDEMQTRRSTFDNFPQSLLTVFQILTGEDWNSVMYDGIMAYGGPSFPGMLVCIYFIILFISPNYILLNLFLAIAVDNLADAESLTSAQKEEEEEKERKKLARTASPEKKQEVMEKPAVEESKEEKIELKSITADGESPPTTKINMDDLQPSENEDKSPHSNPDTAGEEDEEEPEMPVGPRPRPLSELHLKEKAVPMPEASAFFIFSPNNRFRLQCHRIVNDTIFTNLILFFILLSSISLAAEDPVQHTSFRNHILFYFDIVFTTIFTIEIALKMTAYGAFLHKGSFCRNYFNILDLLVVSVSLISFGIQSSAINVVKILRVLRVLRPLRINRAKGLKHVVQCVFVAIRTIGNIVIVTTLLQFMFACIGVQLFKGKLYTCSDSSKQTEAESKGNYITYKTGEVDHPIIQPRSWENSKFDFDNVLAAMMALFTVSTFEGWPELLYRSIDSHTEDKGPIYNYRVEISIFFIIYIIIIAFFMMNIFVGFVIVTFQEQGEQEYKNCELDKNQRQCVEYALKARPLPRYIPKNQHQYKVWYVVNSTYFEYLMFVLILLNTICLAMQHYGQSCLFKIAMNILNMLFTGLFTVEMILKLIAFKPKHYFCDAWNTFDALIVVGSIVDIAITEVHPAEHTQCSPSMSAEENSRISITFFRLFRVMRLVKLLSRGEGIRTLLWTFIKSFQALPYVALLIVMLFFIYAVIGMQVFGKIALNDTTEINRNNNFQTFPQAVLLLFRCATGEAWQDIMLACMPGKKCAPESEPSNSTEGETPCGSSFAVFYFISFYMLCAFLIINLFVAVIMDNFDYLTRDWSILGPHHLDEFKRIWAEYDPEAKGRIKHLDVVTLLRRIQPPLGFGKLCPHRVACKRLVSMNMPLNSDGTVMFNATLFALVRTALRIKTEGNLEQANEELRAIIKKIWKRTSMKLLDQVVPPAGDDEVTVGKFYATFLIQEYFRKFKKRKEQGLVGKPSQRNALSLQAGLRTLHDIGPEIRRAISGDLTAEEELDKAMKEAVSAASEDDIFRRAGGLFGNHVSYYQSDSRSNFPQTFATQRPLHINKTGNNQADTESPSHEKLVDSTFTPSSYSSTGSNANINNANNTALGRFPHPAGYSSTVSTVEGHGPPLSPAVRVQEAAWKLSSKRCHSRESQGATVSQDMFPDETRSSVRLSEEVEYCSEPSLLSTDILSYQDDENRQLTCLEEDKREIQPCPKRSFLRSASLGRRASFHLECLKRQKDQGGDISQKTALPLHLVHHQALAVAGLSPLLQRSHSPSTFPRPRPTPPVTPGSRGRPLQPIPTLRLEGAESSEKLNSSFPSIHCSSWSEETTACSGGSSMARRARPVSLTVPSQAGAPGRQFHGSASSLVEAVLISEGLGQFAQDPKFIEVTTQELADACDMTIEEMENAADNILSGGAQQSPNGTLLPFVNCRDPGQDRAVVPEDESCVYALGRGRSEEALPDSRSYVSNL
T3 sequence (P54290 25-944 partner limits assumed, other chains not shown): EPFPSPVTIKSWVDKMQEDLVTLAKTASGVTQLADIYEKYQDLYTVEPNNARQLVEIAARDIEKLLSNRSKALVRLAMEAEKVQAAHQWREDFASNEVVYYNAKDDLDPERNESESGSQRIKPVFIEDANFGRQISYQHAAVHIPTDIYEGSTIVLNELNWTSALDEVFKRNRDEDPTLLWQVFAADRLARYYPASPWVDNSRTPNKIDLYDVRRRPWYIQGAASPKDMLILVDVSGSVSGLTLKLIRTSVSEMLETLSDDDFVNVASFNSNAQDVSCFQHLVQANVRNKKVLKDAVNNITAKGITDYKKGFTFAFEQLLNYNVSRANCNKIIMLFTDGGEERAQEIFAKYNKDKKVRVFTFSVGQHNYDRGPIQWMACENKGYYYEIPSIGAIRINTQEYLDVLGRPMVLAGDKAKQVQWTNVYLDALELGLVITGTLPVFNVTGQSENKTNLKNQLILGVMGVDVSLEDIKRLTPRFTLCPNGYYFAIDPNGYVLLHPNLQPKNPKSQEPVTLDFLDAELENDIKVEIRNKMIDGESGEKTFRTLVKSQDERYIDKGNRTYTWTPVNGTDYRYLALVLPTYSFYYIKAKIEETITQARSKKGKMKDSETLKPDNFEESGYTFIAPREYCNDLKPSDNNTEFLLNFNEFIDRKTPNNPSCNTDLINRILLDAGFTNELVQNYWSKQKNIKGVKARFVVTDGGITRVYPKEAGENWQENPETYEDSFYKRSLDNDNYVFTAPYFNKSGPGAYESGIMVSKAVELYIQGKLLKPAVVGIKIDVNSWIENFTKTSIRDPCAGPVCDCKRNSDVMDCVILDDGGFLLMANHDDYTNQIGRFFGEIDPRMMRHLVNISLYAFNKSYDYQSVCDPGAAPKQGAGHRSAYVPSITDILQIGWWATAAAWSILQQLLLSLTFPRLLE
T3 sequence (P54290 945-1091 partner limits assumed, other chains not shown): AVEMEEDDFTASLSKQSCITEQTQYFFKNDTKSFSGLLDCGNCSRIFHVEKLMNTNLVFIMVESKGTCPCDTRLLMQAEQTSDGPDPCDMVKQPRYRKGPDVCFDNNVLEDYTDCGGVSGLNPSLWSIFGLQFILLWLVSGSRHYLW
The data set can be described thus: Competition binding of [3H]nitrendipine to membrane fragments of rat cardiac muscle. As to conditions: [3H]nitrendipine, rat cardiac muscle membranes.

The target of another data set is T4, α2B receptor (Homo sapiens, UniProt P18089).
T4 construct: host or cells: LM(tk-) cells, line L-NGC-α2B
T4 sequence (P18089 1-450): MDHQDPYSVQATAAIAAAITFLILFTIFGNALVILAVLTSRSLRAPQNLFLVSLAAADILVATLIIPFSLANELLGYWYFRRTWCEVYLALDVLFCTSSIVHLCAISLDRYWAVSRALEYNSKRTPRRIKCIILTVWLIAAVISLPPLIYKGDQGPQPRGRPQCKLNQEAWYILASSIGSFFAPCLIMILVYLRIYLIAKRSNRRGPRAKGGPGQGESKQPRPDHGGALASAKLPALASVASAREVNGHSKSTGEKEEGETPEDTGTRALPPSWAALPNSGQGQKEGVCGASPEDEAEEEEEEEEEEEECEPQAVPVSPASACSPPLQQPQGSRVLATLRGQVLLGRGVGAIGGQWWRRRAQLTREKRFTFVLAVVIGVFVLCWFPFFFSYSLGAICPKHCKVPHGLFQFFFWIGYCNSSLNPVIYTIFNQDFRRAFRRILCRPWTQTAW
Briefly: Competition binding, [3H]rauwolscine, human α2B receptor. As to conditions: [3H]rauwolscine.
Excerpt: as §1, §2, §3

Where [1] appears, read: human receptor, LM(tk-) cell lysates, mean, read-out: PKi alpha-2 2a (converted).
The mark [2] stands for this setting: human receptor, LM(tk-) cell lysates, mean, read-out: PKi alpha-2 2c (converted).
The mark [3] stands for this setting: mean, read-out: PKi Ca (converted).
The mark [4] stands for this setting: human receptor, LM(tk-) cell lysates, mean, read-out: PKi alpha-2 2b (converted).

Procedure for canine prostate: Protocol for In Vivo Evaluation of Compounds in Canine Prostate
Adult male mongrel dogs more than one year of age were chosen for the model. After induction of general anesthesia using sodium pentobarbital (25 mg/Kg i.v.), the animals were intubated and allowed to breathe spontaneously. An arterial catheter was inserted via the femoral artery to monitor blood pressure and i.v. line was inserted into the leg for fluid and drug administration. A constant saline infusion was maintained at 40 to 50 mL/h. Next, a seven cm lower abdominal incision was made one cm lateral to the penis.
The bladder, prostate and a short segment of urethra were identified and isolated, without damage to the nerves or blood vessels. A cystotomy incision was made through which the pressure catheter was inserted and positioned in the prostatic urethra. The cystotomy was not closed, but the wound edges were sutured to stop bleeding. The tip of the catheter was positioned just distal to the prostate and secured in place with an O-silk tie around the urethra. A second holding suture at the bladder neck secured the catheter in place.
Fluid, either water or saline, was pumped by a Harvard infusion pump at 0.1 mL/min through a Gould pressure transducer into the catheter. The fluid exists at a port in the catheter which is in the prostatic urethra. Occlusion of the port, by contraction of the prostate, blocks the flow and a pressure wave is created. This pressure is transmitted back through the catheter to the transducer which is attached to a Gould recorder. Squeezing the prostate gland caused an increase in urethral pressure which verified the correct position in the urethra.
The compounds were tested as follows: A dose response curve was first generated for phenylephrine alone, in doses ranging from one μg/Kg to 50 μg/Kg. The absolute rise in urethral pressure was recorded for each dose and the next dose given when the urethral pressure returned to baseline. Phenylephrine dose response curves were generated in all animals tested. Increasing doses of compounds were then given, and the phenylephrine dose response curve repeated in the prepense of each dose of the compound. No animal received more than one compound; four animals were used to test each compound. To test for tachyphylaxis, four separate dogs were challenged with repeated phenylephrine doses for six hrs, the usual length of each experiment. From the dose-effect data, the inhibition constant (Ki) and the median-effect dose (ED50) were calculated. Both the Ki and ED50 values given are calculated by using microcomputer software and an IBM-PC.

`COC(=O)C1=C(C)NC(C)=C(C(=O)NCCCN2CCC(c3ccccc3)(c3ccccc3)CC2)C1c1ccc([N+](=O)[O-])cc1` (racemic) [(±)-93, hydrochloride hydrate] gave a negative logarithm of the Ki (pKi) at human prostatic tissue of 7.28 ± 0.4. The compound further displayed a Ki in the data set with canine prostate of 7.6 nmol/kg.
As to `COC(=O)C1(c2ccccc2)CCN(CCCNC(=O)C2=C(C)NC(C)=C(C(C)=O)C2c2ccc([N+](=O)[O-])cc2)CC1` (centres unmarked) [Example 201, 5-Acetyl-1,4-dihydro-2,6-dimethyl-3-{N-[3-(4-methoxycarbonyl-4-phenylpiperidin-1-yl)propyl]}carboxamido-4-(4-nitrophenyl)pyridine], the melting point was in the range of 94 to 95 °C. The Ki on α2A receptor (setting [1]) is 4470 nM. On α2C receptor (setting [2]), the Ki was 3240 nM. The Ki at L-type calcium channel (setting [3]) was 67600 nM.
As for `CNC(=O)C1=C(C)NC(C)=C(C(=O)NCCCN2CCC(c3ccccc3)CC2)C1c1ccc([N+](=O)[O-])cc1` (centres unmarked) [Example 56, 1,4-Dihydro-2,6-dimethyl-5-(N-methyl) carboxamido-4-(4-nitrophenyl)-3-{N-[3-(4-phenylpiperidin-1-yl)propyl]}carboxamidopyridine hydrochloride hemihydrate], the Ki is 269 nM on α2A receptor (LM(tk-) cell line L-α2A, SEM and n in lines below, read-out: pKi alpha-2 2a (converted)); 129 nM at α2B receptor (LM(tk-) cell line L-NGC-α2B, SEM and n in lines below, read-out: pKi alpha-2 2b (converted)); 186 nM at α2C receptor (LM(tk-) cell line L-α2C, SEM and n in lines below, read-out: pKi alpha-2 2c (converted)); 6460 nM on L-type calcium channel (SEM and n in lines below, read-out: pKi Ca (converted)).
For the compound `COC(=O)C1(c2ccccc2)CCN(CCCNC(=O)C2=C(C)NC(C)=C(C(N)=O)C2c2ccc([N+](=O)[O-])cc2)CC1` (centres unmarked) [Example 198, 5-Carboxamido-1,4-dihydro-2,6-dimethyl-3-{N-[3-(4-methoxycarbonyl-4-phenylpiperidin-1-yl)propyl]}carboxamido-4-(4-nitrophenyl)pyridine], the melting point is 120 to 121 °C. Also, the Ki at α2A receptor (setting [1]) is 1120 nM. Also, the Ki at α2B receptor (setting [4]) was 1070 nM. The Ki at α2C receptor (setting [2]) is 2450 nM. Moreover, the Ki on L-type calcium channel (setting [3]) is 178000 nM.
`CCOC(=O)C1(c2ccccc2)CCN(CCCNC(=O)C2=C(C)NC(C)=C(C(C)=O)C2c2ccc([N+](=O)[O-])cc2)CC1` (racemic) [Example 202, 5-Acetyl-1,4-dihydro-2,6-dimethyl-3-{N-[3-(4-ethoxycarbonyl-4-phenylpiperidin-1-yl)propyl]}carboxamido-4-(4-nitrophenyl)pyridine]: the melting point was 89 to 90 °C. At α2A receptor (setting [1]), the Ki was 4470 nM. The Ki at α2B receptor (setting [4]) is 912 nM. In addition, on α2C receptor (setting [2]), the Ki was 2140 nM. Further, on L-type calcium channel (setting [3]), the Ki was 263000 nM.
